Results reported in patent publication US10414150B2, “Active-energy-ray-curable composition, composition stored container, two-dimensional or three-dimensional image forming apparatus, method for forming two-dimensional or three-dimensional image, and cured product” (Ricoh Company, Ltd., priority 2015, dated 2019).
Like-named read-outs stand apart in the source and are kept apart here.

Experiments:
[1] = negative = satisfies at least one of (1) LLNA SI less than 3, (2) MSDS, (3) reference; cited from earlier work
[2] = cited from earlier work
[3] = test method: maximization method; cited from earlier work
Female mice = assay: Skin sensitization test by LLNA (Local Lymph Node Assay) method, SI value; type: in vivo; conditions: test substance 50.0 w/v % in acetone:olive oil 4:1, 25 μL/auricle, once/day × 3 days, SI less than 3 = negative
Protocol: In the (1), it is judged that a compound is negative in skin sensitization when the SI value of the compound is less than 3, as described in the journal of “Function and Materials”, September, 2005, volume 25, No. 9, on page 55. The lower the SI value is, the lower skin sensitization is.
The SI value was measured by a skin sensitization test by LLNA (Local Lymph Node Assay) method as described below.
α-Hexyl cinnamaldehyde (HCA, available from Wako Pure Chemical Industries, Ltd.) was used as the positive control substance.
A mixture liquid obtained by mixing acetone (available from Wako Pure Chemical Industries, Ltd.) and an olive oil (available from Fujimi Pharmaceutical Co., Ltd.) at a volume ratio (acetone:olive oil) of 4:1 was used as the medium. […]
Based on the body weights of the animals measured two days before sensitization was started, the animals were divided into two groups (4 mice/group) in a manner that the body weight of each individual would be within ±20% of the average body weight of the whole group according to a body weight stratified random sampling method. […]
About twenty four hours after the BrdU administration, the animals were euthanized, and the auricular lymph nodes were extracted. […] The average value and standard error of the weight of the auricular lymph nodes per group were calculated. […]

[4] = test method: OECD Test Guideline 406; cited from earlier work

## C=C(C)C(=O)OC(C)(C)C [Example A2, t-butyl methacrylate]
[1]
  Skin sensitization: negative
[2]; 18.5° C.
  Vapor pressure: 700 Pa
[3]
  Skin sensitization evaluated according to the reference: negative

## C=C(C)C(=O)OCCCCCC [Example A4, n-Hexyl methacrylate]
[1]
  Skin sensitization: negative
[2]; 20° C.
  Vapor pressure: 34.7 Pa
[3]
  Skin sensitization evaluated according to the reference: negative

## C=C(C)C(=O)OCC(CO)OC(=O)C(=C)C (stereo not shown) [Example B2, Glycerol dimethacrylate]
[1]
  Skin sensitization: negative
Female mice
  SI value (Stimulation Index) measured by LLNA test: 1.2

## O=C(c1ccccc1)C1(O)CCCCC1 [Example C1, 1-Hydroxy-cyclohexyl phenyl ketone]
[1]
  Skin sensitization: negative
[4]
  Skin sensitization evaluated according to the MSDS: nothing

## CCC(Cc1ccc(C)cc1)(C(=O)c1ccc(N2CCOCC2)cc1)N(C)C (stereo not shown) [2-dimethylamino-2-(4-methylbenzyl)-1-(4-morpholin-4-yl-phenyl)butan-1-one]
[1]
  Skin sensitization: negative

## C=C(C)C(=O)OCC(CC)(COC(=O)C(=C)C)COC(=O)C(=C)C [Example B6, Trimethylolpropane trimethacrylate]
Female mice
  SI value (Stimulation Index) measured by LLNA test: 1.9

## polyethylene glycol dimethacrylate
[1]
  Skin sensitization: negative

## tricyclodecane dimethanol dimethacrylate
[1]
  Skin sensitization: negative

## CCC(Cc1ccc(C)cc1)(C(=O)c1ccc(N2CCOCC2)cc1)N(C)C (stereo not shown) [Example C2, 2-Dimethylamino-2-(4-methylbenzyl)-1-(4-morpholin-4-yl-phenyl)butan-1-one]
[4]
  Skin sensitization evaluated according to the MSDS: nothing

## Caprolactone-modified dipentaerythritolhexaacrylate [Example B5]
[1]
  Skin sensitization: negative

## CSc1ccc(C(=O)C(C)(C)N2CCOCC2)cc1 [Example C3, 2-[4-(Methylthio)benzoyl]-2-(4-morpholinyl)propane]
[4]
  Skin sensitization evaluated according to the MSDS: nothing

## C=CC(=O)OCc1ccccc1 [benzyl acrylate, reference compound]
[1]
  Skin sensitization: positive
[2]; 25° C.
  Vapor pressure: 9.7 Pa

## C=C(C)C(=O)OCCCCC [Example A3, n-Pentyl methacrylate]
[1]
  Skin sensitization: negative
[2]; 25° C.
  Vapor pressure: 69.1 Pa
[3]
  Skin sensitization evaluated according to the reference: negative
